Assay results: the NIST ThermoML archive (doi:10.1016/j.jct.2005.01.002)

Test: xn = mol fraction of the nth substance listed
Details: 101 kPa, Liquid

CCCCCOCCCCC [dipentyl ether] + CN(C)C=O
mass density [kg/m3]
Details | 298.15 K | 313.15 K | 328.15 K | 343.15 K | 358.15 K
x2 = 0.0416 | 781.66 | 771.34 | 759.02 | 746.76 | 734.14
x2 = 0.1163 | 787.12 | 776.77 | 764.39 | 752.03 | 739.41
x2 = 0.1609 | 790.65 | 780.27 | 767.84 | 755.43 | 742.78
x2 = 0.217 | 795.39 | 784.95 | 772.41 | 759.94 | 747.25
x2 = 0.2456 | 797.91 | 787.44 | 774.88 | 762.38 | 749.67
x2 = 0.3011 | 803.14 | 792.61 | 779.97 | 767.39 | 754.63
x2 = 0.3542 | 808.53 | 797.94 | 785.21 | 772.57 | 759.74
x2 = 0.4097 | 814.65 | 803.99 | 791.14 | 778.42 | 765.54
x2 = 0.457 | 820.29 | 809.57 | 796.61 | 783.81 | 770.89
x2 = 0.5002 | 825.83 | 815.04 | 801.98 | 789.12 | 776.12
x2 = 0.5187 | 828.35 | 817.52 | 804.42 | 791.51 | 778.49
x2 = 0.5486 | 832.57 | 821.67 | 808.5 | 795.54 | 782.47
x2 = 0.6123 | 842.35 | 831.31 | 817.97 | 804.87 | 791.69
x2 = 0.6525 | 849.15 | 837.99 | 824.54 | 811.37 | 798.06
x2 = 0.7141 | 860.63 | 849.31 | 835.68 | 822.37 | 808.9
x2 = 0.7678 | 872.03 | 860.55 | 846.65 | 833.17 | 819.65
x2 = 0.8272 | 886.29 | 874.58 | 860.43 | 846.76 | 833.11
x2 = 0.8585 | 894.75 | 882.91 | 868.61 | 854.86 | 840.93
x2 = 0.9152 | 911.86 | 899.77 | 885.03 | 871.15 | 857.02
x2 = 0.9534 | 924.96 | 912.63 | 897.96 | 883.55 | 869.17

CCCOCCC [dipropyl ether] + CN(C)C=O
mass density [kg/m3]
Details | 298.15 K | 313.15 K | 328.15 K | 343.15 K | 358.15 K
x2 = 0.0499 | 749.01 | 735.06 | 720.89 | 706.81 | 692.16
x2 = 0.1072 | 756.74 | 742.84 | 728.72 | 714.64 | 699.96
x2 = 0.1515 | 763.14 | 749.17 | 735.12 | 720.81 | 706.1
x2 = 0.2129 | 772.12 | 758.15 | 743.94 | 729.67 | 714.89
x2 = 0.2528 | 778.22 | 764.23 | 749.93 | 735.72 | 720.91
x2 = 0.3142 | 787.82 | 773.92 | 759.52 | 745.25 | 730.4
x2 = 0.3508 | 793.89 | 780 | 765.58 | 751.24 | 736.39
x2 = 0.3895 | 800.55 | 786.59 | 772.07 | 757.74 | 742.88
x2 = 0.4353 | 808.57 | 794.67 | 780.13 | 765.72 | 750.85
x2 = 0.4788 | 816.49 | 802.63 | 788.03 | 773.58 | 758.7
x2 = 0.5053 | 821.46 | 807.64 | 793.01 | 778.54 | 763.66
x2 = 0.5243 | 825.12 | 811.32 | 796.66 | 782.18 | 767.29
x2 = 0.5454 | 829.23 | 815.46 | 800.8 | 786.3 | 771.4
x2 = 0.6019 | 840.66 | 826.99 | 812.28 | 797.75 | 782.85
x2 = 0.6475 | 850.32 | 836.74 | 821.98 | 807.43 | 792.53
x2 = 0.7054 | 863.22 | 849.75 | 834.83 | 820.5 | 805.64
x2 = 0.7502 | 873.74 | 860.32 | 845.39 | 830.97 | 816.13
x2 = 0.79 | 883.5 | 870.11 | 854.95 | 840.56 | 825.74
x2 = 0.8514 | 899.37 | 886.42 | 871.19 | 856.91 | 842.07
x2 = 0.9075 | 914.86 | 902.16 | 886.61 | 872.33 | 857.58
x2 = 0.9594 | 933.76 | 921.32 | 905.81 | 891.47 | 876.94
